Four compounds from patent US4305950A, “Pharmaceutical agent containing amino derivatives of 2-methyl-5-(2-hydroxystyryl)-1,3,4-thiadiazole” (BASF Aktiengesellschaft, priority 1978, dated 1981) can be followed below.

Data set [1] concerns the target T1, cardiac beta-1-receptors (Felis catus, UniProt Q9TST6).
T1 construct: in narcotized cats (weight 2-4 kg); from tissue; host or cells: heart of the living narcotized cat (in vivo)
The data set is described as follows: Beta-sympatholytic action: inhibition of isoproterenol-induced tachycardia in narcotized cats. It counts as in vivo. The note with it: for Beta-sympatholytic action, R.A. (relative activity): Propranolol = 1.00, cats, intravenous; for factor by which doses blocking cardiac beta-1-receptors are lower than those of propranolol: compared to propranolol. The text has this: The following test methods were used:
Beta-sympatholytic agents inhibit such tachycardia.
^(1) Inhibition of isoproterenolinduced tachycardia in cats under
hexobarbital narcosis. Intravenous administration.
^(2) Dose (mg/kg) which inhibits the isoproterenolinduced tachycardia

The subject of data set [2] is female NMRI mice. It counts as in vivo. The note with it: for Therapeutic range, relative: mouse, in vivo.

T1 sequence (Q9TST6 whole entry): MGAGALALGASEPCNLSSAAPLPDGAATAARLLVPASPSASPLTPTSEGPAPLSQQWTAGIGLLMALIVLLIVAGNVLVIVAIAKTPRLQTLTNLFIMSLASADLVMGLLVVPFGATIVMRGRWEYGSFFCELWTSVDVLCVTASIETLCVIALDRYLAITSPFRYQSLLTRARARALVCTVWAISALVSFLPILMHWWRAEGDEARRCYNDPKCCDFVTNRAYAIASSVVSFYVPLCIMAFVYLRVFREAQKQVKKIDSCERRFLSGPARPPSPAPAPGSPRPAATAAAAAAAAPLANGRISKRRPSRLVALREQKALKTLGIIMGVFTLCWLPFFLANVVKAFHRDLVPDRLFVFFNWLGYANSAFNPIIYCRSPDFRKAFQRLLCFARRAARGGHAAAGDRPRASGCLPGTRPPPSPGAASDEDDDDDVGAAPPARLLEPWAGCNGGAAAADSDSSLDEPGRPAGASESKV

As to `Cc1nnc(C=Cc2ccccc2OCC(O)CNC(C)(C)C)s1` (stereo not shown) [Example 3, 2-Methyl-5-[2-(2-hydroxy-3-tert.-butylamino-propoxy)-styryl]-1,3,4-thiadiazole], in data set [1], the “Beta-sympatholytic action, R.A. (relative activity)” value is 25.22 and the “factor by which doses blocking cardiac beta-1-receptors are lower than those of propranolol” value worked out at 25. Moreover, in data set [1] (cat, cats under hexobarbital narcosis, intravenous administration, read-out: Beta-sympatholytic action, ED 50% (dose which inhibits the isoproterenol-induced tachycardia by 50%)), the ED50 was 5.59 µg/kg. For the same compound, the “Therapeutic range, relative” value in data set [2] came to 13.73.

Consider `Cc1nnc(C=Cc2ccccc2OCC(O)CNC2CC2)s1` (stereo not shown) [Example 2, 2-Methyl-5-[2-(2-hydroxy-3-cyclopropylamino-propoxy)-styryl]-1,3,4-thiadiazole], for which, in data set [1], the “Beta-sympatholytic action, R.A. (relative activity)” value is 11.75 and the “factor by which doses blocking cardiac beta-1-receptors are lower than those of propranolol” value was determined as 12. Moreover, in data set [2], the “factor by which the therapeutic range is increased, compared to propranolol” value is given as 7.6 and the “Therapeutic range, relative” value came out at 7.55.

`Cc1nnc(C=Cc2ccccc2OCC(O)CNC(C)C)s1` (stereo not shown) [Example 1, 2-Methyl-5-[2-(2-hydroxy-3-isopropylamino-propoxy)-styryl]-1,3,4-thiadiazol]: the “Beta-sympatholytic action, R.A. (relative activity)” value in data set [1] came out at 14.10. The “Therapeutic range, relative” value in data set [2] was found to be 10.84.

As to `C#CC(C)NCC(O)COc1ccccc1C=Cc1nnc(C)s1` (stereo not shown) [Example 7, 2-Methyl-5-[2-(2-hydroxy-3-(but-1-ynyl-3-amino)-propoxy)-styryl]-1,3,4-thiadiazole], the “Beta-sympatholytic action, R.A. (relative activity)” value in data set [1] is 12.70. Further, in data set [2], the “factor by which the therapeutic range is increased, compared to propranolol” value was found to be 30.7 and the “Therapeutic range, relative” value was 30.68.
